According to patent publication US20080009418A1, “Selective Inhibitors” (Alchemia LTD., priority 2004, published 2008):

Columns and labels:
Conditions in all cases: compound at 10 μM
Human κ-Opioid (KOP) = target: T1, Human κ-Opioid (KOP) (Homo sapiens, UniProt P41145); assay: Radioligand binding, human κ-opioid (KOP) membranes, filtration, [3H]-Diprenorphine
T1 construct: purchased Perkin Elmer Biosignal
In short: (§1)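 Membranes from cloned human receptors were incubated with compound and radioligand for 1 hour at room temperature. Bound ligand was collected on 0.3% PEI-soaked filters, washed with cold 50 mM Tris-HCl pH 7.4, and counted by scintillation. Percent inhibition was computed against DMSO totals and reference-ligand nonspecific wells.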

Human Melanocortin (MC4) = target: T2, Human Melanocortin (MC4) (Homo sapiens, UniProt P32245); assay: Radioligand binding, human melanocortin MC4 membranes, FlashPlate, [125I]-NDP-αMSH
T2 construct: purchased Perkin Elmer Biosignal
In short: (§2)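 Cloned human receptor membranes were coated onto FlashPlate wells and incubated with radioligand and compound (added from a 0.5 mM DMSO daughter plate) for 1 hour at room temperature in the dark. Scintillation counting gave percent inhibition, with DMSO defining total and reference ligand defining non-specific binding.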

Mouse urotensin (mUR2) = target: T3, Mouse urotensin (mUR2) (Mus musculus, UniProt Q8VIH9); assay: Radioligand binding, mouse urotensin mUR2 membranes, FlashPlate, [125I]-Urotensin II
T3 construct: purchased Perkin Elmer Biosignal
T3 sequence (Q8VIH9 1-385): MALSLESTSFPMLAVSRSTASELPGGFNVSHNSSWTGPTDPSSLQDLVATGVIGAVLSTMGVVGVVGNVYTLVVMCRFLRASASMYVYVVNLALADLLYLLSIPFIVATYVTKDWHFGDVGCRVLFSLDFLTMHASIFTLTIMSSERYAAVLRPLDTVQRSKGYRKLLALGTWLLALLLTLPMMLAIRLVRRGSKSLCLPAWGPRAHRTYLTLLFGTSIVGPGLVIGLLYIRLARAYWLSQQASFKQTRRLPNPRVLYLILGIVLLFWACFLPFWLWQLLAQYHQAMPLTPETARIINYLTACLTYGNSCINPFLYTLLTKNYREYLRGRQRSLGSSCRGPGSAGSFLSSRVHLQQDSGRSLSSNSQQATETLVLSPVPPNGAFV
In short: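 Cloned mouse urotensin (mUR2) receptor membranes from Perkin Elmer Biosignal were immobilized in FlashPlate microplates using a proprietary coating. Each well got 19.5 μl buffer, then 0.5 μl of DMSO, reference ligand, or compound. Adding 5 μl of [125I]-Urotensin II, diluted to 5× final concentration in binding buffer, started binding. Plates were sealed with TopSeal-A and incubated 1 hour at room temperature in the dark. Wells were counted for 30 seconds each on a TopCount after a 60-second delay, and percentage inhibition was calculated.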

Human neurokinin (NK1) = target: T4, Human neurokinin (NK1) (Homo sapiens, UniProt P25103); assay: Radioligand binding, human neurokinin NK1 membranes, filtration, [125I]-Substance P
T4 construct: purchased Perkin Elmer Biosignal
In short: as §1

Human δ-opioid (DOP) = target: T5, Human δ-opioid (DOP) (Homo sapiens, UniProt P41143); assay: Radioligand binding, human δ-opioid (DOP) membranes, FlashPlate, [3H]-Bremazocine
T5 construct: purchased Perkin Elmer Biosignal
In short: as §2

Human opioid (ORL1) = target: T6, Human opioid (ORL1) (Homo sapiens, UniProt P41146); assay: Radioligand binding, human opioid ORL1 membranes, FlashPlate, [125I]-Nociceptin
T6 construct: purchased Perkin Elmer Biosignal
In short: as §2

Human melanocortin (MC5) = target: T7, Human melanocortin (MC5) (Homo sapiens, UniProt P33032); assay: Radioligand binding, human melanocortin MC5 membranes, FlashPlate, [125I]-NDP-αMSH
T7 construct: purchased Perkin Elmer Biosignal
In short: as §2

[1] = target: T8, Human melanin-concentrating hormone (MCH1) (Homo sapiens, UniProt Q99705); assay: Radioligand binding, human melanin-concentrating hormone MCH1 membranes, FlashPlate, [125I]-S36057
T8 construct: purchased Perkin Elmer Biosignal
In short: as §2

[2] = target: T9, Human neuropeptide Y (NPY-Y1) (Homo sapiens, UniProt P25929); assay: Radioligand binding, human neuropeptide Y NPY-Y1 membranes, FlashPlate, [125I]-PYY
T9 construct: purchased Perkin Elmer Biosignal
T9 sequence (P25929 1-384): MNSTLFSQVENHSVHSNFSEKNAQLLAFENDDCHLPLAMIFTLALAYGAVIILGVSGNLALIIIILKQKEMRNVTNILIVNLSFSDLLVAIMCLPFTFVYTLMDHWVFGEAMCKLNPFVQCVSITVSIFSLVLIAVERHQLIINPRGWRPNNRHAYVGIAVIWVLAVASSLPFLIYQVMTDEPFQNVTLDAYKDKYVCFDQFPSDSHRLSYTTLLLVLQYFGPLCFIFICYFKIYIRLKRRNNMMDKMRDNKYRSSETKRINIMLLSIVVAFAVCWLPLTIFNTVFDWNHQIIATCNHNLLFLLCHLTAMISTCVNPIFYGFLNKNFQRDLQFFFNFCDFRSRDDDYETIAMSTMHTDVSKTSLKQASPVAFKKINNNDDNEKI
In short: as §2

Human Melanocortin (MC3) = target: T10, Human Melanocortin (MC3) (Homo sapiens, UniProt P41968); assay: Radioligand binding, human melanocortin MC3 membranes, FlashPlate, [125I]-NDP-αMSH
T10 construct: purchased Perkin Elmer Biosignal
In short: as §2

Human μ-opioid (MOP) = target: T11, Human μ-opioid (MOP) (Homo sapiens, UniProt P35372); assay: Radioligand binding, human μ-opioid (MOP) membranes, FlashPlate, [3H]-Naloxone
T11 construct: purchased Perkin Elmer Biosignal
In short: as §2

T7 sequence (P33032 whole entry): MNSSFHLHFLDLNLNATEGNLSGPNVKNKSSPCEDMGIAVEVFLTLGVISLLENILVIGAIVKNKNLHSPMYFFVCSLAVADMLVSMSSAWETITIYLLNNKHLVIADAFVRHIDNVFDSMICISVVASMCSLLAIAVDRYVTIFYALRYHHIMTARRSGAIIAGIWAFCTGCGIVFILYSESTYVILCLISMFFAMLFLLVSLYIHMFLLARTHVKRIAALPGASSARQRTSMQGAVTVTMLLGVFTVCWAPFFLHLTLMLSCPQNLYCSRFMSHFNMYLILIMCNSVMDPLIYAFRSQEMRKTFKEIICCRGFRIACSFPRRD
T6 sequence (P41146 whole entry): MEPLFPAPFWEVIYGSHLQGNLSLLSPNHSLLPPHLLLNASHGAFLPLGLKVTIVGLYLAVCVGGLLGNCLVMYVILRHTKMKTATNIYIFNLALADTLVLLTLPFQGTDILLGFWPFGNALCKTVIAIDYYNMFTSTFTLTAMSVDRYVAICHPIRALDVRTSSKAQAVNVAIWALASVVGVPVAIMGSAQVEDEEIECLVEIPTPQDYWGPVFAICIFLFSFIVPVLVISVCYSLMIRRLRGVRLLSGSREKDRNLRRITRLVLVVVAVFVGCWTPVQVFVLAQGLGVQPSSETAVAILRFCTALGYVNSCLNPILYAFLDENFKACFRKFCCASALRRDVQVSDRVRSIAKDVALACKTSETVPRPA
T11 sequence (P35372 whole entry): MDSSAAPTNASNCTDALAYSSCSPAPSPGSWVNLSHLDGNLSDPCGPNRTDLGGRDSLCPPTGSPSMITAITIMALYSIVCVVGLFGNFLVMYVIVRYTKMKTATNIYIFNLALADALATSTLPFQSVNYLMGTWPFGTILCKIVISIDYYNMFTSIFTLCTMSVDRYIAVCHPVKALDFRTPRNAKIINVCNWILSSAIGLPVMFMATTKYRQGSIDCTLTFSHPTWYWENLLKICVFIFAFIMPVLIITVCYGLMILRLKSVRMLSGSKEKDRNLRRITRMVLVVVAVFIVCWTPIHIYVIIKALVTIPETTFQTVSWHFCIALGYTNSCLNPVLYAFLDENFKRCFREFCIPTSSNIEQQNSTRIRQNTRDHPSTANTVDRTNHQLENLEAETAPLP
T2 sequence (P32245 whole entry): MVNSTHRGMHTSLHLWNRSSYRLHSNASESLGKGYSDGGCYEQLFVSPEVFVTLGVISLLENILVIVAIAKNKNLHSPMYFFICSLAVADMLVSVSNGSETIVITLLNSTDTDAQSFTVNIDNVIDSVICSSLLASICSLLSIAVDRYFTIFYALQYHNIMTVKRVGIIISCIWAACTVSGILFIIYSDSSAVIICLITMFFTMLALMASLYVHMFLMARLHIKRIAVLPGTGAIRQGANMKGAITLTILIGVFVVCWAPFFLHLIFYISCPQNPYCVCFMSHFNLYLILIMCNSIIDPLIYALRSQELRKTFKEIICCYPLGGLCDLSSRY
T8 sequence (Q99705 whole entry): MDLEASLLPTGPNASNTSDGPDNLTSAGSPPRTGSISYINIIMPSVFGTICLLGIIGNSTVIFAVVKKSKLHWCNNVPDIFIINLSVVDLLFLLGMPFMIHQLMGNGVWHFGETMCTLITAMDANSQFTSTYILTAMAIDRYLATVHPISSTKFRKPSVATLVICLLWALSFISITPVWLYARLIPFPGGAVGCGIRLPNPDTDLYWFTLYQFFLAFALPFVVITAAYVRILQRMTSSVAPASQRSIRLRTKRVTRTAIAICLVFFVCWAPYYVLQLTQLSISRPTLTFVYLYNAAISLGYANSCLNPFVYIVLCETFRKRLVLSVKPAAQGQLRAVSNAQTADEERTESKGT
T5 sequence (P41143 whole entry): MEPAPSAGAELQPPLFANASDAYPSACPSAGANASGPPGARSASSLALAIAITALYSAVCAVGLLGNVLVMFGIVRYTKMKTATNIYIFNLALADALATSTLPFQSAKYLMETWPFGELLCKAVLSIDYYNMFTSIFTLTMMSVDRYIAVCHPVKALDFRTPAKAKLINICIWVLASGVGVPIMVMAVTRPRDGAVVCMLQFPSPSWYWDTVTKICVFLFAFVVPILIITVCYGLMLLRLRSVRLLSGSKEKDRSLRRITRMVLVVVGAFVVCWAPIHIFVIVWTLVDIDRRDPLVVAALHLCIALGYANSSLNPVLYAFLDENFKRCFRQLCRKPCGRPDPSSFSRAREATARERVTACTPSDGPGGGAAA
T1 sequence (P41145 whole entry): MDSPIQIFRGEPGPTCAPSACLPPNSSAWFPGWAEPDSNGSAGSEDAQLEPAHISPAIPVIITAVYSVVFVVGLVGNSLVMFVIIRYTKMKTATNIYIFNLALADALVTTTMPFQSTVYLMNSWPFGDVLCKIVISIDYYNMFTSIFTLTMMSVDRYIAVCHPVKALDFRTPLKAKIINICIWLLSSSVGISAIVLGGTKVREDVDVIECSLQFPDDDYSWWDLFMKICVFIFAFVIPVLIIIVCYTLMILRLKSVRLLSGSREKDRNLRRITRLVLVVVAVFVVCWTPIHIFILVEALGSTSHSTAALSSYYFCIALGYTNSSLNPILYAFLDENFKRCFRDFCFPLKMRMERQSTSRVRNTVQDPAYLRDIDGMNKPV
T10 sequence (P41968 whole entry): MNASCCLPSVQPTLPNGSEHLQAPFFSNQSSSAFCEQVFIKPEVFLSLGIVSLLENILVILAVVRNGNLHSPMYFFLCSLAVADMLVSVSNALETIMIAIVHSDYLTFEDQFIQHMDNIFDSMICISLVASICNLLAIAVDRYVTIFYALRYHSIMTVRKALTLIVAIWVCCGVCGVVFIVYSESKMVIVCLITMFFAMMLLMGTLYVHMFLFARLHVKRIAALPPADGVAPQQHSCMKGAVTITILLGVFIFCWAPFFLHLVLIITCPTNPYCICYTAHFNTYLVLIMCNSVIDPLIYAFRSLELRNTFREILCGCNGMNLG
T4 sequence (P25103 whole entry): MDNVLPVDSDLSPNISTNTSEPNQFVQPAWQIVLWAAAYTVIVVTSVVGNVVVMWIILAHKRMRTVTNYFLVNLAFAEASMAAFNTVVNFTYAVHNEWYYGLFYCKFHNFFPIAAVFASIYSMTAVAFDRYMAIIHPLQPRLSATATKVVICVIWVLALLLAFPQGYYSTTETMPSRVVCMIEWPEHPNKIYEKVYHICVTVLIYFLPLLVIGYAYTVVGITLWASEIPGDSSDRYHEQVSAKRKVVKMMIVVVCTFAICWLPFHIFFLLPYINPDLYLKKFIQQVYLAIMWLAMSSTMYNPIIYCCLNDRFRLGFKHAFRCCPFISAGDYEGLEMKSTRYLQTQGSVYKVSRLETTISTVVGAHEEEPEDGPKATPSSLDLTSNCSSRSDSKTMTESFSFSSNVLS

Question: How did the “A2 radioligand binding inhibition” value (Human κ-Opioid (KOP); human κ-opioid (KOP) membranes) turn out when `COC[C@H]1OC(OCc2ccc(-c3ccccc3)cc2)[C@H](NC(=O)CCCNC(=N)N)[C@@H](OCc2ccccc2)[C@@H]1O` (stereo partly drawn) [compound 9] was run?
Answer: Its value is “− (“−” indicates less than 50% inhibition at 10 μM)”.

Question: And the “A4 radioligand binding inhibition” value (Human Melanocortin (MC4); human melanocortin MC4 membranes)?
Answer: The value was “− (“−” indicates less than 50% inhibition at 10 μM)”.

Question: What about the “A11 radioligand binding inhibition” value (Mouse urotensin (mUR2); mouse urotensin mUR2 membranes) of the same compound?
Answer: Its value is “− (“−” indicates less than 50% inhibition at 10 μM)”.

Question: And the “A8 radioligand binding inhibition” value (Human neurokinin (NK1); human neurokinin NK1 membranes)?
Answer: Its value is “+ (“+” indicates greater than 50% inhibition at 10 μM)”.

Question: And the “A1 radioligand binding inhibition” value (Human δ-opioid (DOP); human δ-opioid (DOP) membranes)?
Answer: Its value is “− (“−” indicates less than 50% inhibition at 10 μM)”.

Question: And the “A10 radioligand binding inhibition” value (Human opioid (ORL1); human ORL1 membranes)?
Answer: Its value is “− (“−” indicates less than 50% inhibition at 10 μM)”.

Question: What about the “A5 radioligand binding inhibition” value (Human melanocortin (MC5); human melanocortin MC5 membranes) of the same compound?
Answer: Its value is “− (“−” indicates less than 50% inhibition at 10 μM)”.

Question: What about the “A6 radioligand binding inhibition” value ([1]; human MCH1 membranes, 10 µM) of the same compound?
Answer: Its value is “− (“−” indicates less than 50% inhibition at 10 μM)”.

Question: What about the “A9 radioligand binding inhibition” value ([2]; human NPY-Y1 membranes) of the same compound?
Answer: Its value is “− (“−” indicates less than 50% inhibition at 10 μM)”.

Question: What about the “A3 radioligand binding inhibition” value (Human Melanocortin (MC3); human melanocortin MC3 membranes) of the same compound?
Answer: Its value is “− (“−” indicates less than 50% inhibition at 10 μM)”.

Question: What about the “A7 radioligand binding inhibition” value (Human μ-opioid (MOP); human μ-opioid (MOP) membranes) of the same compound?
Answer: Its value is “− (“−” indicates less than 50% inhibition at 10 μM)”.

Question: For `COCC1OC(OCc2ccc(Cl)cc2)C(NC(=O)CCCNC(=N)N)C(OCc2ccccc2)C1O` (stereo not drawn) [compound 198], which “A2: inhibition of radioligand binding” value (Human κ-Opioid (KOP); [3H]-Diprenorphine, filtration) is on record?
Answer: The value was “− (“−” indicates less than 50% inhibition at 10 μM)”.

Question: And the “A4: inhibition of radioligand binding” value (Human Melanocortin (MC4); [125I]-NDP-αMSH, FlashPlate)?
Answer: Its value is “− (“−” indicates less than 50% inhibition at 10 μM)”.

Question: What about the “A11: inhibition of radioligand binding” value (Mouse urotensin (mUR2); [125I]-Urotensin II, FlashPlate) of the same compound?
Answer: Its value is “− (“−” indicates less than 50% inhibition at 10 μM)”.

Question: What about the “A8: inhibition of radioligand binding” value (Human neurokinin (NK1); [125I]-Substance P, filtration) of the same compound?
Answer: The value was “+ (“+” indicates greater than 50% inhibition at 10 μM)”.

Question: And the “A1: inhibition of radioligand binding” value (Human δ-opioid (DOP); [3H]-Bremazocine, FlashPlate)?
Answer: The value was “− (“−” indicates less than 50% inhibition at 10 μM)”.

Question: What about the “A10: inhibition of radioligand binding” value (Human opioid (ORL1); [125I]-Nociceptin, FlashPlate) of the same compound?
Answer: Its value is “− (“−” indicates less than 50% inhibition at 10 μM)”.

Question: What about the “A5: inhibition of radioligand binding” value (Human melanocortin (MC5); [125I]-NDP-αMSH, FlashPlate) of the same compound?
Answer: Its value is “+ (“+” indicates greater than 50% inhibition at 10 μM)”.

Question: What about the “A6: inhibition of radioligand binding” value ([1]; [125I]-S36057, FlashPlate) of the same compound?
Answer: Its value is “− (“−” indicates less than 50% inhibition at 10 μM)”.

Question: And the “A9: inhibition of radioligand binding” value ([2]; [125I]-PYY, FlashPlate)?
Answer: Its value is “− (“−” indicates less than 50% inhibition at 10 μM)”.

Question: What about the “A3: inhibition of radioligand binding” value (Human Melanocortin (MC3); [125I]-NDP-αMSH, FlashPlate) of the same compound?
Answer: The value was “− (“−” indicates less than 50% inhibition at 10 μM)”.

Question: And the “A7: inhibition of radioligand binding” value (Human μ-opioid (MOP); [3H]-Naloxone, FlashPlate)?
Answer: The value was “− (“−” indicates less than 50% inhibition at 10 μM)”.

Question: How did the “A2: inhibition of radioligand binding, human κ-opioid (KOP)” value (Human κ-Opioid (KOP); [3H]-Diprenorphine) turn out when `NCCCC(=O)NC1C(OCc2ccc(Cl)cc2)OC(COCc2ccc(Cl)cc2)C(O)C1OCc1ccc2ccccc2c1` (single isomer, unassigned) [compound 500] was run?
Answer: The value was “− (“−” indicates less than 50% inhibition at 10 μM)”.

Question: What about the “A4: inhibition of radioligand binding, human melanocortin (MC4)” value (Human Melanocortin (MC4); [125I]-NDP-αMSH) of the same compound?
Answer: Its value is “+ (“+” indicates greater than 50% inhibition at 10 μM)”.

Question: And the “A11: inhibition of radioligand binding, mouse urotensin (mUR2)” value (Mouse urotensin (mUR2); [125I]-Urotensin II)?
Answer: The value was “− (“−” indicates less than 50% inhibition at 10 μM)”.

Question: And the “A8: inhibition of radioligand binding, human neurokinin (NK1)” value (Human neurokinin (NK1); [125I]-Substance P)?
Answer: The value was “+ (“+” indicates greater than 50% inhibition at 10 μM)”.

Question: What about the “A1: inhibition of radioligand binding, human δ-opioid (DOP)” value (Human δ-opioid (DOP); [3H]-Bremazocine) of the same compound?
Answer: Its value is “− (“−” indicates less than 50% inhibition at 10 μM)”.

Question: And the “A10: inhibition of radioligand binding, human opioid (ORL1)” value (Human opioid (ORL1); [125I]-Nociceptin)?
Answer: Its value is “+ (“+” indicates greater than 50% inhibition at 10 μM)”.

Question: What about the “A5: inhibition of radioligand binding, human melanocortin (MC5)” value (Human melanocortin (MC5); [125I]-NDP-αMSH) of the same compound?
Answer: The value was “+ (“+” indicates greater than 50% inhibition at 10 μM)”.

Question: What about the “A6: inhibition of radioligand binding, human melanin-concentrating hormone (MCH1)” value ([1]; [125I]-S36057, 10 µM) of the same compound?
Answer: Its value is “+ (“+” indicates greater than 50% inhibition at 10 μM)”.

Question: And the “A9: inhibition of radioligand binding, human neuropeptide Y (NPY-Y1)” value ([2]; [125I]-PYY)?
Answer: Its value is “− (“−” indicates less than 50% inhibition at 10 μM)”.

Question: And the “A3: inhibition of radioligand binding, human melanocortin (MC3)” value (Human Melanocortin (MC3); [125I]-NDP-αMSH)?
Answer: The value was “+ (“+” indicates greater than 50% inhibition at 10 μM)”.

Question: And the “A7: inhibition of radioligand binding, human μ-opioid (MOP)” value (Human μ-opioid (MOP); [3H]-Naloxone, 10 µM)?
Answer: The value was “+ (“+” indicates greater than 50% inhibition at 10 μM)”.
